These are literature values, as cited in patent EP4088714A1, “OPHTHALMIC PHARMACEUTICAL COMPOSITION COMPRISING ATROPINE” (Warszawskie Zaklady Farmaceutyczne Polfa S.A., priority 2021, dated 2022).

The structures appear in SMILES notation.

On to `CN1[C@@H]2CC[C@H]1C[C@@H](OC(=O)C(CO)c1ccccc1)C2` (some centres unmarked) [atropine, Atropine], for which the “need for photochromatic glasses” value (concentrations 0.01% to 0.05%, treated patients, two years of treatment) was “higher than 30%”. The tolerability result (concentrations ranging from 0.01% to 0.05%, 383 children, after two years of treatment) is reported as “well tolerated”.
